{
  "source": "patent US20240316079A1",
  "about": "“USE OF AKR1C3-ACTIVATED COMPOUND” (OBI PHARMA, INC., priority 2021, published 2024)",
  "key": {"recombinant human AKR1C4": {"molecular_target": "T1, recombinant human AKR1C4 (Homo sapiens, UniProt P17516)", "T1 construct": "purchased Sigma", "T1 sequence (P17516 whole entry)": "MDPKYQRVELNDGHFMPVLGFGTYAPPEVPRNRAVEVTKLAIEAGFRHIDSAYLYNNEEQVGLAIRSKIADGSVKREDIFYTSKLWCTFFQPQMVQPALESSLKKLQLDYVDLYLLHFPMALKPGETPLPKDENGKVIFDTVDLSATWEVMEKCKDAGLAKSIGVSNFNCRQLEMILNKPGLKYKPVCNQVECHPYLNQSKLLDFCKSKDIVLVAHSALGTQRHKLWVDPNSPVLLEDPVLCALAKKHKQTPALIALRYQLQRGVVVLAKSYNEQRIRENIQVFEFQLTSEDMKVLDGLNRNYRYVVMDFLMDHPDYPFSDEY", "test": "Incubation of 3424 with AKR1C4 (2660 production, LC-MS/MS)", "format": "biochemical"}, "NCI-H2110": {"system": "NCI-H2110", "test": "In vitro proliferation assay, NSCLC cell line NCI-H2110", "format": "cell-based", "settings": "Homo sapiens, 72 hours of drug exposure, read-out: 3424 IC50", "description": "(§1) IC50 was calculated as described above."}, "PA1280 PDX": {"system": "PA1280 PDX", "test": "Pancreatic cancer PDX model PA1280", "format": "in vivo, mice", "description": "Anti-tumor activity of 3424 in PDX models was assessed at CrownBio Bioscience (Beijing, China) Inc. using female BALB/c nude mice (6-7 weeks old, Beijing Anikeeper Biotech Co., Ltd, Beijing, China). Tumor fragments (PA1280, GA6201, LU2057 and LU2505) from stock mice inoculated with selected primary human cancer tissues (pancreatic, gastric cancer, and lung) were harvested and used for inoculation into BALB/c nude mice. Each mouse was inoculated subcutaneously for tumor development. Mice were allocated randomly into experimental groups when the average tumor size reached ˜100 mm^3) by using StudyDirector™ Ver 3.1.399.19 (Studylog Systems, Inc., S. San Francisco, CA, USA). Prodrug 3424 was administered IV at the indicated doses with a regimen of Q7D×3. Each group consisted of 5-6 mice. The grouping day was denoted as Day 0. Prodrug 3424 was administrated to the tumor-bearing mice from Day 0 through Days as indicated for each study."}, "NCI-H2228": {"system": "NCI-H2228", "test": "In vitro proliferation assay, NSCLC cell line NCI-H2228", "format": "cell-based, human", "description": "as §1"}, "NCI-H23": {"system": "NCI-H23", "test": "In vitro proliferation assay, NSCLC cell line NCI-H23", "format": "cell-based", "settings": "Homo sapiens, 72 hours of drug exposure, read-out: 3424 IC50", "description": "as §1"}, "SNU-387": {"system": "SNU-387", "test": "In vitro proliferation assay, liver cancer cell line SNU-387", "format": "cell-based", "settings": "Homo sapiens, 96 hours of drug exposure, AKR1C3 protein Medium, read-out: 3424 IC50", "description": "as §1"}, "NCI-H1792": {"system": "NCI-H1792", "test": "In vitro proliferation assay, NSCLC cell line NCI-H1792", "format": "cell-based", "settings": "Homo sapiens, 72 hours of drug exposure, read-out: 3424 IC50", "description": "as §1"}},
  "note": "pIC50: −log10 of the molar value.",
  "data": [
    {"smiles": "C[C@H](OP(=O)(N1CC1)N1CC1)c1ccc([N+](=O)[O-])c(Oc2cccc(C(=O)N(C)C)c2)c1", "note": "[Compound 3424, (S)-1-(3-(3-N,N-dimethylaminocarbonyl)phenoxyl-4-mtrophenyl)-1-ethyl-N,N′-bis(ethylene)phosphoramidate]", "values": [
      {"measurement": "metabolism by AKR1C4", "setting": "recombinant human AKR1C4", "value": "not metabolized"},
      {"measurement": "2660 Concentration", "setting": "recombinant human AKR1C4; 3424 concentration 50 μM, incubation with AKR1C4, BQL: below quantification limit (0.25 ng/mL)", "value": "BQL"},
      {"measurement": "pIC50", "setting": "NCI-H2110", "value": 8.96},
      {"measurement": "TGI", "setting": "PA1280 PDX; 3424 2.5 mg/kg i.v. Q7D × 3", "value": 77.4, "unit": "%"},
      {"measurement": "tolerability / body weight loss", "setting": "PA1280 PDX; PA1280, all tested doses", "value": "no body weight loss"},
      {"measurement": "pIC50", "setting": "NCI-H2228; Homo sapiens, NCI-H2228, 72 hours of drug exposure, read-out: 3424 IC50", "value": 9.68},
      {"measurement": "enhanced cytotoxicity in line expressing high AKR1C3 versus low/no AKR1C3", "setting": "NCI-H2228; NCI-H2228 NSCLC line", "value": "up to 5000 fold"},
      {"measurement": "pIC50", "setting": "NCI-H23", "value": "< 6.00"},
      {"measurement": "pIC50", "setting": "SNU-387", "value": 6.99},
      {"measurement": "pIC50", "setting": "NCI-H1792", "value": 8.35}
    ]}
  ]
}
